Results reported in patent US20250353819A1, “ARYL HYDANTOIN COMPOUNDS AND METHODS OF USE” (priority 2022, published 2025).
Where two headings read alike, the source gives them in different places.

Experiments:
LAPC4 cells = test: Androgen-dependent cell-based assay (DHT, LAPC4); conditions: for IC50: Homo sapiens, DHT-induced, androgen-dependent LAPC4 prostate cancer cell line, read-out: LAPC4 IC50
Method: Androgen-Dependent Cell-based Assay. As described by Jones and Diamond (2008), LAPC4 cells were cultured in phenol red free RPMI 1640 media supplemented with antibiotics and 10% FBS. […] […] Mean-effect plots (log[compound] vs. log[fractional effect]) were generated to determine the IC50 values for each test compound or combinations of test compounds at constant ratios.

[1] = Partition coefficient (Log D) by gradient HPLC; assay type: physicochemical; conditions: pH 7.4, chromatographic estimate; read-out: gLogD7.4
Excerpt: Partition Coefficient. Partition coefficient values (Log D) of the test compounds were estimated by correlation of their chromatographic retention properties against the characteristics of a series of standard compounds with known partition coefficient values using gradient HPLC (modification of a method reported by Lombardo et al., 2001).

[2] = In vitro metabolic stability, human liver microsomes; assay type: in vitro ADME; conditions: human liver microsomes; read-out: h CLint
Method: (§1) In Vitro Metabolic Stability. As described by Charman et al. (2020), metabolic stability assays were performed by incubating test compounds in liver microsomes at 37° C. and 0.4 mg/mL protein concentration. The metabolic reaction was initiated by the addition of an NADPH-regenerating system and quenched at various time points over a 60 min incubation period by the addition of acetonitrile containing diazepam as internal standard. Control samples (containing no NADPH) were included (and quenched at 2, 30 and 60 min) to monitor for potential degradation in the absence of cofactor.

[3] = In vitro metabolic stability, mouse liver microsomes; assay type: in vitro ADME; conditions: mouse liver microsomes; read-out: m CLint
Method: as §1

[4] = Mouse exposure / pharmacokinetic studies; assay type: in vivo, mice; conditions: for AUC(0-inf): read-out: Plasma AUC0-inf
[5] = Stability in human cryopreserved hepatocytes; assay type: in vitro ADME
[6] = Stability in dog cryopreserved hepatocytes; assay type: in vitro ADME; conditions: for CLint: Dog cryopreserved hepatocytes
[7] = Stability in rat cryopreserved hepatocytes; assay type: in vitro ADME; conditions: for CLint: Rat cryopreserved hepatocytes
[8] = Plasma protein binding (rapid equilibrium dialysis), human plasma; assay type: in vitro ADME; conditions: for fraction unbound: human, plasma, read-out: % bound (converted)
[9] = Plasma protein binding, dog plasma; assay type: in vitro ADME; conditions: read-out: % bound (converted)
[10] = Plasma protein binding, mouse plasma; assay type: in vitro ADME; conditions: for fraction unbound: mouse, plasma, read-out: % bound (converted)
CYP 2C19 = CYP 2C19 (Homo sapiens (Human), UniProt P33261); test: CYP inhibition in human liver microsomes, 2C19; assay type: in vitro ADME
Chain of CYP 2C19 (P33261 whole entry): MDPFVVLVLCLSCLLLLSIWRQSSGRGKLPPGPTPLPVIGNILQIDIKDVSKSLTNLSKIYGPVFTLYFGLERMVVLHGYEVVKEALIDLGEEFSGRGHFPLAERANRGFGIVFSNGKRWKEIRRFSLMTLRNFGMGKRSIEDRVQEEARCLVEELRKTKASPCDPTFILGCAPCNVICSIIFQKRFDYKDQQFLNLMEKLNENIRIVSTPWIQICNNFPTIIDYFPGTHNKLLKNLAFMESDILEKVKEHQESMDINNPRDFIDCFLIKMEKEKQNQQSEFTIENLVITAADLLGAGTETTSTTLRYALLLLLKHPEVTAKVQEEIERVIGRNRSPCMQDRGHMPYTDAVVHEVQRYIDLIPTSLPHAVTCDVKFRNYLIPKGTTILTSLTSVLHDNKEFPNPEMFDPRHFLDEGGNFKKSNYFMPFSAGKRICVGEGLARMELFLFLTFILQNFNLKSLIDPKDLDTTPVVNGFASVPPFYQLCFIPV

LogD7.4 (shake flask) = conditions: pH 7.4
CYP 2C9 = CYP 2C9 (Homo sapiens (Human), UniProt P11712); test: CYP inhibition in human liver microsomes, 2C9
Chain of CYP 2C9 (P11712 whole entry): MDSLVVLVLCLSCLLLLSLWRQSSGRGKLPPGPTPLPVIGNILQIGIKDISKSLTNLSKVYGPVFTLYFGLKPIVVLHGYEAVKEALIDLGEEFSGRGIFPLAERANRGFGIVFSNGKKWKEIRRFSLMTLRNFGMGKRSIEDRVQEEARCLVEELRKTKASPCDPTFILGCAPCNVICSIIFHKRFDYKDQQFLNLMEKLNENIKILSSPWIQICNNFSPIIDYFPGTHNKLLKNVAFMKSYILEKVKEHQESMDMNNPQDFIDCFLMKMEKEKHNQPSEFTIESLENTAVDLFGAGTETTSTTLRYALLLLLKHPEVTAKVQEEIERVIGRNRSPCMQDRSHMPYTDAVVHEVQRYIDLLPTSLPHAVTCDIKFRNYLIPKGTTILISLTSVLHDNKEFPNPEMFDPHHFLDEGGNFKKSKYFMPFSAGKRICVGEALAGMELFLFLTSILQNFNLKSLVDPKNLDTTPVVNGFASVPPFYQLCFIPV

[11] = male, Swiss outbred, mouse, in vivo, iv, 1 mg/kg, mice, IV, mean dose 1.0 mg/kg, read-out: Plasma CL
[12] = male, Swiss outbred, mouse, in vivo, 100 mg/kg PO in mice, read-out: AUC0-last
[13] = male, Swiss outbred, mouse, in vivo, 100 mg/kg PO in mice, read-out: Cmax
[14] = male, Swiss outbred, mouse, in vivo, mice, IV, mean dose 1.0 mg/kg, read-out: Plasma AUC0-48 h
[15] = male, Swiss outbred, mouse, in vivo, mice, IV, mean dose 1.0 mg/kg
[16] = mice, oral, mean dose 6.73 mg/kg
[17] = mice, oral, mean dose 13.5 mg/kg
[18] = mice, oral, mean dose 26.3 mg/kg
[19] = mice, oral, mean dose 55.6 mg/kg
[20] = mice, oral, mean dose 99.7 mg/kg

In the case of CC1(C)NC(=O)N(c2ccc(F)c(C(C)(F)F)c2)C1=O [Compound IC, 3-(3-(1,1-difluoroethyl)-4-fluorophenyl)-5,5-dimethylimidazolidine-2,4-dione], the IC50 (LAPC4 cells) is reported as > 100 µM, the chromatographic logD [1] is reported as 2.6 and the microsomal CLint [2] is reported as 7 µL/min/mg. The microsomal CLint [3] was < 7 µL/min/mg, the clearance [4, 11] was 1.96 mL/min/kg and the AUC(0-t) [4, 12] was 1560 µg·h/mL. For the same compound, the Cmax [4, 13] was 40000 ng/mL, the AUC(0-t) [4, 14] was 8.48 µg·h/mL and the AUC(0-inf) [4, 15] was 8.52 µg·h/mL. For the same compound, the half-life ([4]; male, Swiss outbred, mouse, plasma, mice, IV, mean dose 1.0 mg/kg, read-out: Apparent t1/2 (converted)) was 8.9 h, the PlasmaVSS ([4]; mice, IV, mean dose 1.0 mg/kg) was 1.64 L/kg and the CLint [5] was <1 μL/min/10^6. The CLint [6] was <1.9 μL/min/10^6, the CLint [7] was <1 μL/min/10^6 and the fraction unbound [8] was 0.34. The fraction unbound [9] was 0.36, the fraction unbound [10] was 0.38 and the IC50 (CYP 2C19) was > 20 µM. The “LogD7.4 (shake flask)” value (LogD7.4 (shake flask)) was 2.1, the logD (LogD7.4 (shake flask)) was 2.1 and the IC50 (CYP 2C9) was > 20 µM.

In the case of [2H]C([2H])([2H])C1(C([2H])([2H])[2H])NC(=O)N(c2ccc(F)c(C(C)(F)F)c2)C1=O [Compound IE, 3-(3-(1,1-difluoroethyl)-4-fluorophenyl)-5,5-bis(methyl-d3)imidazolidine-2,4-dione], the IC50 (LAPC4 cells) is reported as > 100 µM, the “inhibition of DHT-induced cell proliferation” value (LAPC4 cells; concentrations up to 100 μM) is reported as “did not inhibit” and the chromatographic logD [1] is reported as 2.5. For the same compound, the microsomal CLint [2] was < 7 µL/min/mg, the microsomal CLint [3] was < 7 µL/min/mg and the half-life ([4]; male, Swiss outbred, mouse, in vivo, iv, 1 mg/kg, IV 1 mg/kg, mice, read-out: apparent half-life (converted)) was 30 h. For the same compound, the clearance ([4]; male, Swiss outbred, mouse, in vivo, iv, 1 mg/kg, IV 1 mg/kg, mice, read-out: blood clearance) was 0.59 mL/min/kg, the half-life ([4]; male, Swiss outbred, mouse, in vivo, iv, 1 mg/kg, mice, IV, mean dose 1.0 mg/kg, read-out: Apparent t1/2 (converted)) was 38 h and the clearance [4, 11] was 0.491 mL/min/kg. For the same compound, the bioavailability ([4]; male, Swiss outbred, mouse, in vivo, po, mice, all doses 6.25 to 100 mg/kg, read-out: apparent oral bioavailability) was ≥ 80%, the AUC(0-t) [4, 12] was 1800 µg·h/mL and the Cmax [4, 13] was 41000 ng/mL. It also gave a Vd ([4]; male, Swiss outbred, mouse, in vivo, IV 1 mg/kg, mice, read-out: volume of distribution) of 1.59 L/kg, an AUC(0-t) [4, 14] of 28.2 µg·h/mL and an AUC(0-inf) [4, 15] of 33.9 µg·h/mL. It also gave a Tmax ([4]; male, Swiss outbred, mouse, in vivo, mice, oral, mean dose 6.73 mg/kg) of 3 h, an AUC(0-t) ([4]; male, Swiss outbred, mouse, in vivo, mice, oral, mean dose 6.73 mg/kg, read-out: Plasma AUC0-48 h) of 145 µg·h/mL and a Cmax ([4]; male, Swiss outbred, mouse, in vivo, mice, oral, mean dose 6.73 mg/kg, read-out: Plasma Cmax) of 3760 ng/mL. For the same compound, the Tmax ([4]; male, Swiss outbred, mouse, in vivo, mice, oral, mean dose 13.5 mg/kg) was 7 h, the AUC(0-t) ([4]; male, Swiss outbred, mouse, in vivo, mice, oral, mean dose 13.5 mg/kg, read-out: Plasma AUC0-48 h) was 320 µg·h/mL and the Cmax ([4]; male, Swiss outbred, mouse, in vivo, mice, oral, mean dose 13.5 mg/kg, read-out: Plasma Cmax) was 8590 ng/mL. For the same compound, the Tmax ([4]; male, Swiss outbred, mouse, in vivo, mice, oral, mean dose 26.3 mg/kg) was 7 h, the AUC(0-t) ([4]; male, Swiss outbred, mouse, in vivo, mice, oral, mean dose 26.3 mg/kg, read-out: Plasma AUC0-48 h) was 607 µg·h/mL and the Cmax ([4]; male, Swiss outbred, mouse, in vivo, mice, oral, mean dose 26.3 mg/kg, read-out: Plasma Cmax) was 14400 ng/mL. The Tmax ([4]; male, Swiss outbred, mouse, in vivo, mice, oral, mean dose 55.6 mg/kg) was 3 h, the AUC(0-t) ([4]; male, Swiss outbred, mouse, in vivo, mice, oral, mean dose 55.6 mg/kg, read-out: Plasma AUC0-48 h) was 1130 µg·h/mL and the Cmax ([4]; male, Swiss outbred, mouse, in vivo, mice, oral, mean dose 55.6 mg/kg, read-out: Plasma Cmax) was 28200 ng/mL. The Tmax ([4]; male, Swiss outbred, mouse, in vivo, mice, oral, mean dose 99.7 mg/kg) was 7 h, the AUC(0-t) ([4]; male, Swiss outbred, mouse, in vivo, mice, oral, mean dose 99.7 mg/kg, read-out: Plasma AUC0-48 h) was 1800 µg·h/mL and the Cmax ([4]; male, Swiss outbred, mouse, in vivo, mice, oral, mean dose 99.7 mg/kg, read-out: Plasma Cmax) was 40500 ng/mL. For the same compound, the PlasmaVSS ([4]; mice, IV, mean dose 1.0 mg/kg) was 1.6 L/kg, the “Apparent BA” value [4, 16] was 76% and the “Plasma AUC0-48 h/Dose” value [4, 16] was 21.5 (μg*h/mL)/(mg/kg). The “Plasma Cmax/Dose” value [4, 16] was 0.559 (μg/mL)/(mg/kg), the “Apparent BA” value [4, 17] was 84% and the “Plasma AUC0-48 h/Dose” value [4, 17] was 23.8 (μg*h/mL)/(mg/kg). For the same compound, the “Plasma Cmax/Dose” value [4, 17] was 0.638 (μg/mL)/(mg/kg), the “Apparent BA” value [4, 18] was 82% and the “Plasma AUC0-48 h/Dose” value [4, 18] was 23.1 (μg*h/mL)/(mg/kg). For the same compound, the “Plasma Cmax/Dose” value [4, 18] was 0.547 (μg/mL)/(mg/kg), the “Apparent BA” value [4, 19] was 72% and the “Plasma AUC0-48 h/Dose” value [4, 19] was 20.4 (μg*h/mL)/(mg/kg). The “Plasma Cmax/Dose” value [4, 19] was 0.507 (μg/mL)/(mg/kg), the “Apparent BA” value [4, 20] was 64% and the “Plasma AUC0-48 h/Dose” value [4, 20] was 18.0 (μg*h/mL)/(mg/kg). The “Plasma Cmax/Dose” value [4, 20] was 0.407 (μg/mL)/(mg/kg), the CLint [5] was <2 μL/min/10^6 and the hepatocyte CLint ([5]; read-out: in vitro CLint) was < 2000 µL/min/1e6 cells. The CLint [6] was <2 μL/min/10^6, the hepatocyte CLint ([6]; dog cryopreserved hepatocytes, read-out: in vitro CLint) was < 2000 µL/min/1e6 cells and the CLint [7] was <2 μL/min/10^6. For the same compound, the hepatocyte CLint ([7]; rat cryopreserved hepatocytes, read-out: in vitro CLint) was < 2000 µL/min/1e6 cells, the “% bound” value [8] was 63% and the fraction unbound [8] was 0.367. For the same compound, the fraction unbound [9] was 0.32, the “% bound” value [10] was 54% and the fraction unbound [10] was 0.462. For the same compound, the IC50 (CYP 2C19; 2C19, read-out: CYP inhibition IC50) was > 20 µM, the CYP inhibition (CYP 2C19; CYP 2C19, concentrations up to 20 μM, human liver microsomes) was “did not inhibit” and the “LogD7.4 (shake flask)” value (LogD7.4 (shake flask)) was 1.9. For the same compound, the logD (LogD7.4 (shake flask)) was 1.9, the CYP inhibition (CYP 2C9; CYP 2C9, concentrations up to 20 μM, human liver microsomes) was “did not inhibit” and the IC50 (CYP 2C9; read-out: CYP inhibition IC50, 2C9) was > 20 µM.
